From patent publication US20250332112A1, “IONIZABLE CATIONIC LIPIDS FOR LIPID NANOPARTICLES” (GENEVANT SCIENCES GMBH, priority 2022, published 2025)

Columns and labels:
[1] = Lipid clearance from liver over time after human OTC mRNA LNP (LC-MS); type: in vivo; settings: IV 0.5 mg/kg human OTC mRNA LNP, male C57BL/6 mice (n = 4)
Method: LNP formulations encapsulating ornithine transcarbamylase mRNA were injected intravenously at the specified dose levels to male C57BL/6 mice (6-8 weeks old).
(§1) Liver tissues were treated with PBS and homogenized with a FastPrep machine, 3 cycles of 5 m/s×15 s. Homogenates from the PBS-treated control animals was pooled and used for standard curve preparation. Samples were extracted into a deep well plate with 250 μL of an internal suitability standard. Plates were centrifuged for 15 min at 4° C. and 2000 rpm. Analysis was performed using an Agilent 6520 QTOF coupled to an Agilent 1290 UHPLC, using reverse-phase LC separation. Quantitation of the ionizable lipid was by MS/MS against a calibration curve spiked into appropriately matched blank matrix. Calibration used a similar class of synthetic lipid as internal standard.
At various timepoints post-dose, lipid levels were assessed in the liver. Some novel ionizable lipids reported more rapid clearance rates compared to the benchmark (Table 19).

[2] = test system: luciferase activity in the liver; assay: Luciferase activity in liver after intravenous luciferase mRNA LNP; type: in vivo; settings: 0.5 mg/kg IV, 6 h post-IV administration, BALB/c mice (n = 4)
[3] = Particle characteristics of LNPs containing EGFP mRNA and novel ionizable lipids; type: physicochemical; settings: EGFP mRNA LNP 1.6:54.6:32.8:10.9
In short: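 LNPs of PEG-lipid, ionizable lipid, cholesterol and phospholipid in ethanol were mixed 1:1 with mRNA in 100 mM acetate pH 5 via T-junction, diluted in PBS, dialysed, concentrated to ~0.6 mg/mL and exchanged into 5 mM Tris, 10% sucrose, pH 8. Size and polydispersity by Zetasizer; nucleic acid by RiboGreen.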

[4] = test system: EGFP expression in the liver; assay: EGFP expression in liver after intravenous EGFP mRNA LNP (ELISA); settings: 0.5 mg/kg IV, 24 h post-IV administration, BALB/c mice (n = 4)
Method: LNP formulations encapsulating enhanced green fluorescent protein mRNA were injected intravenously at 0.5 mg/kg to female BALB/c mice (6-8 weeks old). On day of injection, the LNP stocks were filtered and diluted to the required dosing concentration with phosphate buffered saline. At 24 hours post-administration, animals were anaesthetized with a lethal dosage of ketamine/xylazine. Liver samples (left lateral lobe) were collected, weighed, and flash frozen in liquid nitrogen. Liver samples were stored in FastPrep® tubes at −80° C. until analyzed for EGFP expression.
Liver homogenates were prepared in cell extraction buffer, diluted, and analyzed for EGFP protein levels using ELISA, according to manufacturer's instructions (Abcam, GFP ELISA Kit).

[5] = Lipid clearance from liver over time after EGFP mRNA LNP (LC-MS); type: in vivo; settings: IV 0.5 mg/kg EGFP mRNA LNP, female BALB/c mice (n = 4)
Method: as §1
At various timepoints post-dose, lipid levels were assessed in the liver. Some novel ionizable lipids reported more rapid clearance rates compared to the benchmark (Table 33).

[6] = Parent ionizable lipid remaining in liver at 24 h after EGFP mRNA LNP (LC-MS); type: in vivo; settings: 24 h after IV 0.5 mg/kg EGFP mRNA LNP, female BALB/c mice (n = 4)

## CCCCC/C=C\CCCC(CCC/C=C\CCCCC)C(CCC/C=C\CCCCC)OC(=O)CCCCN(C)C (stereo not drawn) [Compound 13-B43, reference compound]
[1]; 0.25 h post-dose
  Parent ionizable lipid remaining in liver, Average: 29.17 nmol/g liver
[1]; 1 h post-dose
  Parent ionizable lipid remaining in liver, Average: 46.37 nmol/g liver
[1]; 3 h post-dose
  Parent ionizable lipid remaining in liver, Average: 63.61 nmol/g liver
[1]; 6 h post-dose
  Parent ionizable lipid remaining in liver, Average: 45.23 nmol/g liver
[1]; 24 h post-dose
  Parent ionizable lipid remaining in liver, Average: 40.01 nmol/g liver
[1]; 168 h post-dose
  Parent ionizable lipid remaining in liver, Average: 34.42 nmol/g liver
[2]; Table 8
  Luc Activity: 5.94E+07 pg/g liver
[2]; Table 9
  Luc Activity: 7.29E+07 pg/g liver
[2]; Table 10
  Luc Activity: 7.04E+07 pg/g liver
[2]; Table 11
  Luc Activity: 6.86E+07 pg/g liver
[2]; Table 12
  Luc Activity: 7.83E+07 pg/g liver
[2]; Table 13
  Luc Activity: 7.60E+07 pg/g liver
[2]; Table 14
  Luc Activity: 6.02E+07 pg/g liver
[3]; Table 20
  Final Product % EE: 98%
  Final Product PDI: 0.07
  Final Product Z-avg: 75 nm
[3]; Table 21
  Final Product % EE: 97%
  Final Product PDI: 0.08
  Final Product Z-avg: 75 nm
[3]; Table 22
  Final Product % EE: 97%
  Final Product PDI: 0.08
  Final Product Z-avg: 73 nm
[3]; Table 23
  Final Product % EE: 98%
  Final Product PDI: 0.15
  Final Product Z-avg: 76 nm
[4]; Table 24
  EGFP: 3.75E+07 pg/g liver
[4]; Table 25
  EGFP: 9.74E+04 pg/g liver
[4]; Table 26
  EGFP: 5.23E+07 pg/g liver
[4]; Table 27
  EGFP: 6.46E+07 pg/g liver
[5]; 0.25 h post-dose
  Parent ionizable lipid remaining in liver, Average: 29.8 nmol/g liver
[5]; 1 h post-dose
  Parent ionizable lipid remaining in liver, Average: 31.2 nmol/g liver
[5]; 3 h post-dose
  Parent ionizable lipid remaining in liver, Average: 40.2 nmol/g liver
[5]; 6 h post-dose
  Parent ionizable lipid remaining in liver, Average: 45.2 nmol/g liver
[5]; 24 h post-dose
  Parent ionizable lipid remaining in liver, Average: 26.4 nmol/g liver
[5]; 168 h post-dose
  Parent ionizable lipid remaining in liver, Average: 25.6 nmol/g liver
[6]; Table 28
  Parent ionizable lipid remaining in liver, Average: 38.48 nmol/g liver
[6]; Table 29
  Parent ionizable lipid remaining in liver, Average: 29.77 nmol/g liver
[6]; Table 30
  Parent ionizable lipid remaining in liver, Average: 50.86 nmol/g liver
[6]; Table 31
  Parent ionizable lipid remaining in liver, Average: 23.9 nmol/g liver
